Experimental data from PMC11864979, “First-in-class ultralong-target-residence-time p38α inhibitors as a mitosis-targeted therapy for colorectal cancer” (Nature Cancer, 2025).
Like-named read-outs stand apart in the source and are kept apart here.

Tests used:
Experiment in all cases: selectivity profiling in a panel of 340 wild-type kinases (Reaction Biology Europe)
Type in all cases: binding
340 wild-type kinases [1] = target: T1, 340 wild-type kinases (Homo sapiens, UniProt Q8IWQ3)
T1 construct: purchased Reaction Biology Europe
T1 sequence (Q8IWQ3 1-736): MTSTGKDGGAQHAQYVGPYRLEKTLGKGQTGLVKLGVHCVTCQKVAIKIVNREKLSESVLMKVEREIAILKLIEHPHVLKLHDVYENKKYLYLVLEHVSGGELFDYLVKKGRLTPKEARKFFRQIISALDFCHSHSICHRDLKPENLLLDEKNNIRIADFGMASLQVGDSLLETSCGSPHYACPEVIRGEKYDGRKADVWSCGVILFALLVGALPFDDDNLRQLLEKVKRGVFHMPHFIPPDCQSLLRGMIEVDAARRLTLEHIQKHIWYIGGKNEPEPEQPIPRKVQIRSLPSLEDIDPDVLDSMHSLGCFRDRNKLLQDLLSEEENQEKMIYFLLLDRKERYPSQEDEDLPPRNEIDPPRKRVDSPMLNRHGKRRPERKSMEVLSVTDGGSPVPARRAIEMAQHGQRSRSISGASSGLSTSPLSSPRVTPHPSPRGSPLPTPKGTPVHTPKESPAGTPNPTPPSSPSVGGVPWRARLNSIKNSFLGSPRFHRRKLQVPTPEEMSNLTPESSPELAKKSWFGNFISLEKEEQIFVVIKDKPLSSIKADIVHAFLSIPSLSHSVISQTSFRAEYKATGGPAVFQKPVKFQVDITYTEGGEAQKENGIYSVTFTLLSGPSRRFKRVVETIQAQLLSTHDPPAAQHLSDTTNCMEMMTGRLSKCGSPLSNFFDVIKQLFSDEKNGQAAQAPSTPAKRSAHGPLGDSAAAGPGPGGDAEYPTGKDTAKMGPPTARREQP

340 wild-type kinases [2] = target: T2, 340 wild-type kinases (Homo sapiens, UniProt P52564, S207D/T211D)
T2 construct: purchased Reaction Biology Europe
T2 sequence (P52564 1-334 S207D/T211D): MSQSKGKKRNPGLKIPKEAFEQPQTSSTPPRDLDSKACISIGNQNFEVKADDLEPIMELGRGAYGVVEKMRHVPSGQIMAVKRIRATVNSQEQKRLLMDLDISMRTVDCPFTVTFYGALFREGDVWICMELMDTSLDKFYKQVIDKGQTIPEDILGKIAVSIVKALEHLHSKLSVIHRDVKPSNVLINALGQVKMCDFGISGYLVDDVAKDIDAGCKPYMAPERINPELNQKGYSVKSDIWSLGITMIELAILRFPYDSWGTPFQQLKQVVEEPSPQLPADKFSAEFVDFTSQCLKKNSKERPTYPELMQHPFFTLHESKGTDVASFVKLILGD

340 wild-type kinases [3] = target: T3, 340 wild-type kinases (Homo sapiens, UniProt P14616)
T3 construct: purchased Reaction Biology Europe

340 wild-type kinases [4] = target: T4, 340 wild-type kinases (Homo sapiens, UniProt P68400)
T4 construct: purchased Reaction Biology Europe

340 wild-type kinases [5] = target: T5, 340 wild-type kinases (Homo sapiens, UniProt O00506)
T5 construct: purchased Reaction Biology Europe

340 wild-type kinases [6] = target: T6, 340 wild-type kinases (Homo sapiens, UniProt Q6IQ55)
T6 construct: purchased Reaction Biology Europe

340 wild-type kinases [7] = target: T7, 340 wild-type kinases (Homo sapiens, UniProt Q05513)
T7 construct: purchased Reaction Biology Europe
T7 sequence (Q05513 1-592): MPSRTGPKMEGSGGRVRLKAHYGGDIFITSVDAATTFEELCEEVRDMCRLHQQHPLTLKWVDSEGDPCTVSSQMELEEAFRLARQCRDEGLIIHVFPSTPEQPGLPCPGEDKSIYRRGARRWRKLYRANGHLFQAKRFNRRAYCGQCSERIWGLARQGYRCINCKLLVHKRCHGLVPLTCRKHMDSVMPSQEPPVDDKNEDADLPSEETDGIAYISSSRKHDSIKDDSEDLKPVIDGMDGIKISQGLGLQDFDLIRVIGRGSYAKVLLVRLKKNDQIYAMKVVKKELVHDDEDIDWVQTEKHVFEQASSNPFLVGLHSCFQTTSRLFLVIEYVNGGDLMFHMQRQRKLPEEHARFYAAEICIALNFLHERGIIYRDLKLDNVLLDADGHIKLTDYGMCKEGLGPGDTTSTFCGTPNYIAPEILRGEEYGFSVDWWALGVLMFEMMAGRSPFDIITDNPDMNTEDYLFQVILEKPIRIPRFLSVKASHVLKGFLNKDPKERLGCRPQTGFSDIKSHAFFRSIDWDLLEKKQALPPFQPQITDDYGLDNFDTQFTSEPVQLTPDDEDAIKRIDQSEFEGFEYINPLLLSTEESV

340 wild-type kinases [8] = target: T8, 340 wild-type kinases (Homo sapiens, UniProt P42345)
T8 construct: purchased Reaction Biology Europe

T4 sequence (P68400 whole entry): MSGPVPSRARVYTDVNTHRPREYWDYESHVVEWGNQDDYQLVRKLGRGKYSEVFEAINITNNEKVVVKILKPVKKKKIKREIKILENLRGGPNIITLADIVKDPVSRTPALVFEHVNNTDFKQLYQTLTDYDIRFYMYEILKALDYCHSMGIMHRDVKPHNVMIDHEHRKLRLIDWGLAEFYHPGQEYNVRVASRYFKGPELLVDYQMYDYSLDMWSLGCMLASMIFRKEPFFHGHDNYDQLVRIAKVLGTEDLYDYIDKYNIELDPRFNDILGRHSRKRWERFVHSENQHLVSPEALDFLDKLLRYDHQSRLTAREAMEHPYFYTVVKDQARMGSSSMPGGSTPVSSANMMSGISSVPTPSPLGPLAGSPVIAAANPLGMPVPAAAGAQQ
T3 sequence (P14616 27-1297): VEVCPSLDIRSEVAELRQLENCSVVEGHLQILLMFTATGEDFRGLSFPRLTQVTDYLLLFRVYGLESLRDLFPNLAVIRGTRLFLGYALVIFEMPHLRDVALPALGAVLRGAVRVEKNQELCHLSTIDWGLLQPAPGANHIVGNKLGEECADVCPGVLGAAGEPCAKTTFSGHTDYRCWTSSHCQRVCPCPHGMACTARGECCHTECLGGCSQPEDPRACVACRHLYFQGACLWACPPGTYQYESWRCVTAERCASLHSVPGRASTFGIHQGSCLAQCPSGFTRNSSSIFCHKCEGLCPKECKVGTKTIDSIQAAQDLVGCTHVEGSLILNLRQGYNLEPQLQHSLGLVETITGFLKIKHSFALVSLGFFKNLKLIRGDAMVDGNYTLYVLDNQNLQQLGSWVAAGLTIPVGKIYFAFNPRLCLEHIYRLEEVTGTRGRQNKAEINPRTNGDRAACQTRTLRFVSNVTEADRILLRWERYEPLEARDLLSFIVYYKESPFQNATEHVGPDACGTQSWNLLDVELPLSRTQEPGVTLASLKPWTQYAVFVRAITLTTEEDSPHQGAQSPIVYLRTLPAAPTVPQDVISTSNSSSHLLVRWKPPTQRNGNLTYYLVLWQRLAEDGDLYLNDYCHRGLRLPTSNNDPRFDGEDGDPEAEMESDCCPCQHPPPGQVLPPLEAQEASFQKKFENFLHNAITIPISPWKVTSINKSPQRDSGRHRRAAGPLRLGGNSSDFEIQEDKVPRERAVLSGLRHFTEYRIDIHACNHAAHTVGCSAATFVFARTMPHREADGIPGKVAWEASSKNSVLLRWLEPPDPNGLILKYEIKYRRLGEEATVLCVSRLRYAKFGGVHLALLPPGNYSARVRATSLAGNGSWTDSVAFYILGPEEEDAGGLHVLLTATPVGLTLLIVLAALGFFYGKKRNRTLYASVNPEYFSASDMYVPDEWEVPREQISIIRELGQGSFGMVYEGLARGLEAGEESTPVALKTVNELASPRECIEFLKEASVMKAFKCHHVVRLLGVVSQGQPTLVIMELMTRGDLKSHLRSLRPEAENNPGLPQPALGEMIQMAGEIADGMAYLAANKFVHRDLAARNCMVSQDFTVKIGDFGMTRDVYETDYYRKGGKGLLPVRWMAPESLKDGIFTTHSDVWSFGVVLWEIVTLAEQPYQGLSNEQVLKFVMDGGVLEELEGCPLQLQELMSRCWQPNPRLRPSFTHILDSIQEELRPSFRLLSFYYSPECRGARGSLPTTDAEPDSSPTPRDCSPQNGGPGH
T5 sequence (O00506 whole entry): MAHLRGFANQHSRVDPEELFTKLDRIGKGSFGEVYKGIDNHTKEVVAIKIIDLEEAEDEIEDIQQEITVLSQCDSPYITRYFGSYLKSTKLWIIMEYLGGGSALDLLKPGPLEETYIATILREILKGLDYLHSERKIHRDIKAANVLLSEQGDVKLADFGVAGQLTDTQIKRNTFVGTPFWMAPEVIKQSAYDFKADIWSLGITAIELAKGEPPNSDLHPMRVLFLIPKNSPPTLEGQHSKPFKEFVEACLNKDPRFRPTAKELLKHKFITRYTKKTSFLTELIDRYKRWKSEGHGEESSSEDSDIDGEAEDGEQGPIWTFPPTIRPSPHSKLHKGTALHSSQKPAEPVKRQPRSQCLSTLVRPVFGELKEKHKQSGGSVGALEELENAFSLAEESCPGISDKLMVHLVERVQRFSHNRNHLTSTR
T6 sequence (Q6IQ55 whole entry): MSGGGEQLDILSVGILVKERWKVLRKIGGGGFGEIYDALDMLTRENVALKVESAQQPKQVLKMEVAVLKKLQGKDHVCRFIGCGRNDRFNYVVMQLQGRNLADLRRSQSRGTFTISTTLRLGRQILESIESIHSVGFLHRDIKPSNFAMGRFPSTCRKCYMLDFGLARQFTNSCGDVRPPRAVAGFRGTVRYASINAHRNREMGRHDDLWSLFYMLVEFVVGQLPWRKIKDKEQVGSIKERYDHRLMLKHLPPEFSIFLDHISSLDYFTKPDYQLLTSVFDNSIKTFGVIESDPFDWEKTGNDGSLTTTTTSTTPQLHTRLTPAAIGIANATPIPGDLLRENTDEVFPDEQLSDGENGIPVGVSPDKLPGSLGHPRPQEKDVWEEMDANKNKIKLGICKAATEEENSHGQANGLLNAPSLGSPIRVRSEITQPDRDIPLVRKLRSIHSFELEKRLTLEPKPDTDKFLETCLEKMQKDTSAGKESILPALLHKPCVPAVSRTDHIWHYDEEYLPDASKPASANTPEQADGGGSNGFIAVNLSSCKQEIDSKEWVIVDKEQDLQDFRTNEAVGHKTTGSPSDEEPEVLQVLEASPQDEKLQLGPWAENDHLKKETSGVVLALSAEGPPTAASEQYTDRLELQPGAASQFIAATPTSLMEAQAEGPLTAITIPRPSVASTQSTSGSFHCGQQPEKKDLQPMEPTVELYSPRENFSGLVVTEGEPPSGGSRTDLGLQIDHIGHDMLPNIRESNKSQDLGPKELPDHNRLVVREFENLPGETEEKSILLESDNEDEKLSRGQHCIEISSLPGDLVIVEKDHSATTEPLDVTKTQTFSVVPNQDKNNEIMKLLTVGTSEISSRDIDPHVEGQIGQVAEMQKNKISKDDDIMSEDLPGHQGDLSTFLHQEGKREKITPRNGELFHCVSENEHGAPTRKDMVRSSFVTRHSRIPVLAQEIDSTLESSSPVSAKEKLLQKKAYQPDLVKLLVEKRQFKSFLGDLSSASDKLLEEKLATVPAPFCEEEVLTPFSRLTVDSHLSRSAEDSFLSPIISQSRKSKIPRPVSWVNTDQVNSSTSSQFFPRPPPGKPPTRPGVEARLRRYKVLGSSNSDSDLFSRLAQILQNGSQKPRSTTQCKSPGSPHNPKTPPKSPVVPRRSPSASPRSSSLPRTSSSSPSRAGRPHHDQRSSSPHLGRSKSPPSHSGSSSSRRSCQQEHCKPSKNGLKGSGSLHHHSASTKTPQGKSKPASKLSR

For `CNC(=O)c1ccc2c(c1)C(=O)c1ccc(Nc3ccc(F)c(NC(=O)C4CC4)c3)cc1CC2` [Compound 2015], which remaining activity at 0.2 µM (340 wild-type kinases [1]; 0.2 µM 2015, read-out: BRSK2 residual activity) is on record?
The remaining activity at 0.2 µM was 103%.

And the remaining activity at 1 µM (340 wild-type kinases [1]; 1 µM 2015, read-out: BRSK2 residual activity)?
Its remaining activity at 1 µM is 101%.

What about the remaining activity at 0.2 µM (340 wild-type kinases [1]; BRSK2, 0.2 µM, read-out: residual activity) of the same molecule?
The remaining activity at 0.2 µM was 103%.

What about the remaining activity at 1 µM (340 wild-type kinases [1]; BRSK2, 1 µM, read-out: residual activity) of the same molecule?
Its remaining activity at 1 µM is 101%.

What about the remaining activity at 0.2 µM (340 wild-type kinases [2]; 0.2 µM 2015, read-out: MKK6 SDTD residual activity) of the same molecule?
Its remaining activity at 0.2 µM is 83.9%.

What about the remaining activity at 1 µM (340 wild-type kinases [2]; 1 µM 2015, read-out: MKK6 SDTD residual activity) of the same molecule?
The remaining activity at 1 µM was 111%.

And the remaining activity at 0.2 µM (340 wild-type kinases [2]; MKK6 SDTD, 0.2 µM, read-out: residual activity)?
Its remaining activity at 0.2 µM is 83.9%.

What about the remaining activity at 1 µM (340 wild-type kinases [2]; MKK6 SDTD, 1 µM, read-out: residual activity) of the same molecule?
Its remaining activity at 1 µM is 111%.

And the remaining activity at 0.2 µM (340 wild-type kinases [3]; 0.2 µM 2015, read-out: INSRR residual activity)?
The remaining activity at 0.2 µM was 96%.

What about the remaining activity at 1 µM (340 wild-type kinases [3]; 1 µM 2015, read-out: INSRR residual activity) of the same molecule?
The remaining activity at 1 µM was 97.4%.

What about the remaining activity at 0.2 µM (340 wild-type kinases [3]; INSRR, 0.2 µM, read-out: residual activity) of the same molecule?
The remaining activity at 0.2 µM was 96%.

What about the remaining activity at 1 µM (340 wild-type kinases [3]; INSRR, 1 µM, read-out: residual activity) of the same molecule?
The remaining activity at 1 µM was 97.4%.

What about the remaining activity at 0.2 µM (340 wild-type kinases [4]; 0.2 µM 2015, read-out: CK2alpha1 residual activity) of the same molecule?
The remaining activity at 0.2 µM was 98.8%.

What about the remaining activity at 1 µM (340 wild-type kinases [4]; 1 µM 2015, read-out: CK2alpha1 residual activity) of the same molecule?
Its remaining activity at 1 µM is 95.8%.

And the remaining activity at 0.2 µM (340 wild-type kinases [4]; CK2alpha1, 0.2 µM, read-out: residual activity)?
The remaining activity at 0.2 µM was 98.8%.

What about the remaining activity at 1 µM (340 wild-type kinases [4]; CK2alpha1, 1 µM, read-out: residual activity) of the same molecule?
The remaining activity at 1 µM was 95.8%.

And the remaining activity at 0.2 µM (340 wild-type kinases [5]; 0.2 µM 2015, read-out: STK25 residual activity)?
Its remaining activity at 0.2 µM is 88.2%.

What about the remaining activity at 1 µM (340 wild-type kinases [5]; 1 µM 2015, read-out: STK25 residual activity) of the same molecule?
The remaining activity at 1 µM was 83.6%.

What about the remaining activity at 0.2 µM (340 wild-type kinases [5]; STK25, 0.2 µM, read-out: residual activity) of the same molecule?
Its remaining activity at 0.2 µM is 88.2%.

What about the remaining activity at 1 µM (340 wild-type kinases [5]; STK25, 1 µM, read-out: residual activity) of the same molecule?
Its remaining activity at 1 µM is 83.6%.

What about the remaining activity at 0.2 µM (340 wild-type kinases [6]; 0.2 µM 2015, read-out: TTBK2 residual activity) of the same molecule?
The remaining activity at 0.2 µM was 115%.

What about the remaining activity at 1 µM (340 wild-type kinases [6]; 1 µM 2015, read-out: TTBK2 residual activity) of the same molecule?
The remaining activity at 1 µM was 118%.

What about the remaining activity at 0.2 µM (340 wild-type kinases [6]; TTBK2, 0.2 µM, read-out: residual activity) of the same molecule?
Its remaining activity at 0.2 µM is 115%.

And the remaining activity at 1 µM (340 wild-type kinases [6]; TTBK2, 1 µM, read-out: residual activity)?
The remaining activity at 1 µM was 118%.

What about the remaining activity at 0.2 µM (340 wild-type kinases [7]; 0.2 µM 2015, read-out: PKCzeta residual activity) of the same molecule?
The remaining activity at 0.2 µM was 126%.

And the remaining activity at 0.2 µM (340 wild-type kinases [7]; 0.2 µM 2015, read-out: PKMzeta residual activity)?
The remaining activity at 0.2 µM was 106%.

And the remaining activity at 1 µM (340 wild-type kinases [7]; 1 µM 2015, read-out: PKCzeta residual activity)?
The remaining activity at 1 µM was 111%.

And the remaining activity at 1 µM (340 wild-type kinases [7]; 1 µM 2015, read-out: PKMzeta residual activity)?
The remaining activity at 1 µM was 102%.

What about the remaining activity at 0.2 µM (340 wild-type kinases [7]; PKCzeta, 0.2 µM, read-out: residual activity) of the same molecule?
Its remaining activity at 0.2 µM is 126%.

And the remaining activity at 1 µM (340 wild-type kinases [7]; PKCzeta, 1 µM, read-out: residual activity)?
The remaining activity at 1 µM was 111%.

What about the remaining activity at 0.2 µM (340 wild-type kinases [8]; 0.2 µM 2015, read-out: MTOR residual activity) of the same molecule?
Its remaining activity at 0.2 µM is 97.9%.

What about the remaining activity at 1 µM (340 wild-type kinases [8]; 1 µM 2015, read-out: MTOR residual activity) of the same molecule?
The remaining activity at 1 µM was 101%.

What about the remaining activity at 0.2 µM (340 wild-type kinases [8]; MTOR, 0.2 µM, read-out: residual activity) of the same molecule?
The remaining activity at 0.2 µM was 97.9%.

And the remaining activity at 1 µM (340 wild-type kinases [8]; MTOR, 1 µM, read-out: residual activity)?
Its remaining activity at 1 µM is 101%.
